15 compounds from patent US11174253B2, “Compound and pharmaceutical composition containing the same” (ALPHALA CO., LTD., priority 2017, dated 2021) can be followed below.

Holding throughout (assay type): cell-based
The subject of experiment [1] is SW480 colon adenocarcinoma cell line. Description: MTS cell viability assay (NCI-60 methodology), GI50/LC50, SW480. The conditions noted are these: Homo sapiens, 48 h, SW480 cells, 2 days incubation with compound. The procedure:
(§1) The number of treated cells was determined by GE InCell 2200 system, and treated cells were stained with Hoechst 33342 which can reveal the remained nucleus in culture plate. The proportion of survival cells then were calculated with the ratio of treated/non-treated cells. The growth inhibition/cytotoxic effect of selected compounds were evaluated by the following protocol of NCI-60 screening platform. The human tumor cell lines are plating on a 96 well plate in a fixed density 24 hr prior compound treatment. Compounds with multiple concentrations are then added into each well for further 48 hr incubation. Cell viability is assessed by MTS method and the potency of compound is represented by GI50 and LC50 calculated by MTS result.
(§2) The cell viability measurement is based on the NCI-60 screening methodology (Nat. Rev. Cancer 6, 813-823, 2006). Briefly, cells are inoculated into 96-well plates at the optimal plating density. After 24 h, one of the two plates for each cell line is processed to determine a time zero cell viability (Tz) by MTS assay (Promega). Compounds are added over a 2-fold serial dilution to provide a total five drug concentrations plus DMSO control. Plates are incubated for a further 2 days, then measured cell viability by MTS assay [control growth (C) and test growth in the presence of drug at the five concentration levels (Ti)]. Growth inhibition of 50% (GI50) is calculated from [(Ti−Tz)/(C−Tz)]×100=50, which is the drug concentration resulting in a 50% reduction of control cells during the drug incubation. The LC50 is calculated from [(Ti−Tz)/Tz]×100=−50, which is the drug concentration resulting in a 50% reduction at the end of the drug treatment as compared to that at the beginning.
(§3) Herein, Hep3B refers to hepatocellular carcinoma cell line, SW480 refers to colon adenocarcinoma cell line, and NCI-H460 refers to human lung cancer cell line.
(In general: Tetrazolium assays rely on reduction of a dye to a coloured formazan, in cell work by metabolically active cells.)

Experiment [2] relates to NCI-H460 human lung cancer cell line. Description: MTS cell viability assay (NCI-60 methodology), GI50/LC50, NCI-H460. Particulars: 48 h, NCI-H460 cells, 2 days incubation with compound. As for the experimental part:
as §1, §2, §3

Experiment [3] has as its system Hep3B hepatocellular carcinoma cell line. Description: MTS cell viability assay (NCI-60 methodology), GI50/LC50, Hep3B. The conditions noted are these: Homo sapiens, 48 h, Hep3B cells, 2 days incubation with compound. The procedure: as §1, §2, §3
The test system of experiment [4] is hepatocellular carcinoma cell line Hep3B. Description: Growth inhibition of Hep3B cells, 48 hr treatment, Hoechst 33342 nucleus count (GE InCell 2200). Particulars: Homo sapiens. The essentials: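 Compound exposure lasted 48 hr at 37° C, 5% CO2. Surviving nuclei were counted after Hoechst 33342 staining, and survival was expressed as the treated/non-treated cell number ratio, including the ratio at 10 μM compound.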

Setting [5] is: Table 1, ratio of number of tumor cells treated with 10 μM compound to non-treated cells.
[6] abbreviates: Table 5, ratio of number of tumor cells treated with 10 μM compound to non-treated cells.
[7] abbreviates: Table 6, ratio of number of tumor cells treated with 10 μM compound to non-treated cells.

For orientation: GI50 means the concentration that inhibits growth by half. What is called LC50 is the concentration lethal to half of the exposed cells or organisms. For orientation: viability means the share of living cells, or the viability signal relative to a control. For `CCOc1cc(OCC)c(-c2nnc(N(C)C(=O)Cc3ccc4nc(N)sc4c3)s2)cn1` [Compound 1-37, 2-(2-aminobenzo[d]thiazol-6-yl)-N-(5-(4,6-diethoxypyridin-3-yl)-1,3,4-thiadiazol-2-yl)-N-methylacetamide], the GI50 came to 1260 nM in experiment [1], 1350 nM in experiment [2] and 840 nM in experiment [3]. For the same compound, the LC50 in experiment [3] was 1240 nM. Moreover, the viability at 10 µM in experiment [4] (setting [5]) turned out to be 47%.
In the case of `CCOc1ccc(-c2nc(NC(=O)c3ccc([N+](=O)[O-])s3)sc2Oc2ccccc2)cc1` [Compound 5-6, N-(4-(4-ethoxyphenyl)-5-phenoxythiazol-2-yl)-5-nitrothiophene-2-carboxamide], in experiment [1], the GI50 was determined as 2590 nM and the LC50 (NCI-60 lethal concentration, 50% net cell loss vs time zero) stood at 5520 nM. Further, in experiment [2], the GI50 was 1170 nM and the LC50 (concentration giving 50% net cell loss versus time zero, NCI-60 definition) is 3990 nM. In experiment [3], the GI50 turned out to be 1100 nM and the LC50 came out at 4350 nM. In addition, the viability at 10 µM in experiment [4] (setting [6]) was 42%.
For `CCOc1cnccc1-c1nnc(NC(=O)Cc2ccc3nc(N)sc3c2)s1` [Compound 1-25, 2-(2-aminobenzo[d]thiazol-6-yl)-N-(5-(3-ethoxypyridin-4-yl)-1,3,4-thiadiazol-2-yl)acetamide], in experiment [1], the GI50 was determined as 350 nM and the LC50 (NCI-60 lethal concentration, 50% net cell loss vs time zero) amounted to 1040 nM. In addition, the GI50 in experiment [2] turned out to be 320 nM. In addition, in experiment [3], the GI50 came to 170 nM and the LC50 came to 500 nM. Besides, in experiment [4] (setting [5]), the viability at 10 µM was 54%.
Consider `CCOc1ccc(-c2nnc(NC(=O)Cc3ccc4nc(N)sc4c3)s2)c(OCC)c1` [Compound 1-18, 2-(2-aminobenzo[d]thiazol-6-yl)-N-(5-(2,4-diethoxyphenyl)-1,3,4-thiadiazol-2-yl)acetamide], for which, in experiment [1], the GI50 turned out to be 190 nM and the LC50 (NCI-60 lethal concentration, 50% net cell loss vs time zero) came to 580 nM. Also, in experiment [2], the GI50 turned out to be 200 nM and the LC50 (concentration giving 50% net cell loss versus time zero, NCI-60 definition) is 600 nM. Besides, in experiment [3], the GI50 is 160 nM and the LC50 amounted to 480 nM. The viability at 10 µM in experiment [4] (setting [5]) turned out to be 70%.
For the compound `CCCCOc1ccc(-c2nc(NC(=O)c3ccc([N+](=O)[O-])s3)sc2Oc2ccccc2)cc1` [Compound 5-56, N-(4-(4-butoxyphenyl)-5-phenoxythiazol-2-yl)-5-nitrothiophene-2-carboxamide], in experiment [1], the GI50 was 1540 nM and the LC50 (NCI-60 lethal concentration, 50% net cell loss vs time zero) turned out to be 9320 nM. In experiment [2], the GI50 was determined as 700 nM and the LC50 (concentration giving 50% net cell loss versus time zero, NCI-60 definition) amounted to 1550 nM. Besides, in experiment [3], the 50% growth inhibitory concentration (GI50) was found to be 550 nM and the LC50 was 2310 nM. In addition, the viability at 10 µM in experiment [4] (setting [6]) is 40%.
In the case of `CCCOc1ccc(-c2nc(NC(=O)c3ccc([N+](=O)[O-])s3)sc2-c2ccc(F)cc2)cc1` [Compound 6-16, N-(5-(4-fluorophenyl)-4-(4-propoxyphenyl)thiazol-2-yl)-5-nitrothiophene-2-carboxamide], in experiment [1], the GI50 was 1890 nM and the LC50 (NCI-60 lethal concentration, 50% net cell loss vs time zero) stood at 2790 nM. Moreover, in experiment [2], the concentration for 50% growth inhibition (GI50) stood at 860 nM and the LC50 (concentration giving 50% net cell loss versus time zero, NCI-60 definition) was found to be 1750 nM. In experiment [3], the GI50 came out at 1240 nM and the LC50 was 1830 nM. Besides, in experiment [4] (setting [7]), the viability at 10 µM was determined as 59%.
For the compound `COc1ccc(-c2sc(NC(=O)c3ccc([N+](=O)[O-])s3)nc2-c2ccc(C(C)(C)C)cc2)cc1` [Compound 6-54, N-(4-(4-(tert-butyl)phenyl)-5-(4-methoxyphenyl)thiazol-2-yl)-5-nitrothiophene-2-carboxamide], in experiment [1], the GI50 is 1380 nM and the LC50 (NCI-60 lethal concentration, 50% net cell loss vs time zero) came to 2350 nM. In experiment [2], the GI50 was 440 nM and the LC50 (concentration giving 50% net cell loss versus time zero, NCI-60 definition) was 1590 nM. Also, in experiment [3], the GI50 is 610 nM and the LC50 is 710 nM. For the same compound, the viability at 10 µM in experiment [4] (setting [7]) is 25%.
`CCOc1ccc(-c2nc(NC(=O)c3ccc([N+](=O)[O-])s3)sc2Oc2cccc(C(F)(F)F)c2)cc1` [Compound 5-23, N-(4-(4-ethoxyphenyl)-5-(3-(trifluoromethyl)phenoxy)thiazol-2-yl)-5-nitrothiophene-2-carboxamide]: the values for the GI50 in experiment [1], in experiment [2] and in experiment [3] were 6420 nM, 2490 nM and 1220 nM, respectively. Besides, the LC50 (concentration giving 50% net cell loss versus time zero, NCI-60 definition) in experiment [2] is 4430 nM. Besides, in experiment [3], the median lethal concentration (LC50) was found to be 3960 nM. The viability at 10 µM in experiment [4] (setting [6]) amounted to 30%.
Consider `CCCCOc1ccc(Oc2sc(NC(=O)c3ccc([N+](=O)[O-])s3)nc2-c2ccc(F)cc2)cc1` [Compound 5-66, N-(5-(4-butoxyphenoxy)-4-(4-fluorophenyl)thiazol-2-yl)-5-nitrothiophene-2-carboxamide], for which, in experiment [1], the GI50 came to 950 nM and the LC50 (NCI-60 lethal concentration, 50% net cell loss vs time zero) was found to be 2810 nM. Besides, in experiment [2], the GI50 turned out to be 390 nM and the LC50 (concentration giving 50% net cell loss versus time zero, NCI-60 definition) came to 1130 nM. For the same compound, in experiment [3], the GI50 amounted to 520 nM and the LC50 was determined as 760 nM. Also, in experiment [4] (setting [6]), the viability at 10 µM was 43%.
For `CCOc1ccc(-c2nc(NC(=O)c3ccc([N+](=O)[O-])s3)sc2Oc2ccc(C(C)(C)C)cc2)cc1` [Compound 5-29, N-(5-(4-(tert-butyl)phenoxy)-4-(4-ethoxyphenyl)thiazol-2-yl)-5-nitrothiophene-2-carboxamide], in experiment [1], the GI50 came out at 3340 nM and the LC50 (NCI-60 lethal concentration, 50% net cell loss vs time zero) was found to be 9950 nM. In experiment [2], the GI50 was 3240 nM and the LC50 (concentration giving 50% net cell loss versus time zero, NCI-60 definition) amounted to 9120 nM. Besides, in experiment [3], the GI50 worked out at 1840 nM and the LC50 amounted to 3860 nM. The viability at 10 µM in experiment [4] (setting [6]) was 42%.
As to `CCCOc1ccc(-c2nc(NC(=O)c3ccc([N+](=O)[O-])s3)sc2Oc2cccc(C(F)(F)F)c2)cc1` [Compound 5-17, 5-nitro-N-(4-(4-propoxyphenyl)-5-(3-(trifluoromethyl)phenoxy)thiazol-2-yl)thiophene-2-carboxamide], in experiment [1], the GI50 was 1260 nM and the LC50 (NCI-60 lethal concentration, 50% net cell loss vs time zero) was found to be 2410 nM. For the same compound, in experiment [2], the GI50 was 1160 nM and the LC50 (concentration giving 50% net cell loss versus time zero, NCI-60 definition) worked out at 2290 nM. In addition, in experiment [3], the GI50 is 300 nM and the LC50 was determined as 1600 nM. Moreover, the viability at 10 µM in experiment [4] (setting [6]) amounted to 37%.
Consider `CCCOc1ccc(-c2nc(NC(=O)c3ccc([N+](=O)[O-])s3)sc2Oc2ccc(C(F)(F)F)cc2)cc1` [Compound 5-26, 5-nitro-N-(4-(4-propoxyphenyl)-5-(4-(trifluoromethyl)phenoxy)thiazol-2-yl)thiophene-2-carboxamide], for which, in experiment [1], the GI50 came to 1050 nM and the LC50 (NCI-60 lethal concentration, 50% net cell loss vs time zero) came to 3440 nM. In experiment [2], the GI50 came to 1150 nM and the LC50 (concentration giving 50% net cell loss versus time zero, NCI-60 definition) amounted to 3200 nM. Also, in experiment [3], the GI50 amounted to 830 nM and the LC50 is 1180 nM. Moreover, in experiment [4] (setting [6]), the viability at 10 µM is 24%.
With `CCCOc1ccc(-c2nc(NC(=O)c3ccc([N+](=O)[O-])o3)sc2Oc2ccccc2)cc1` [Compound 5-48, 5-nitro-N-(5-phenoxy-4-(4-propoxyphenyl)thiazol-2-yl)furan-2-carboxamide], the GI50 in experiment [1] was 1810 nM; in experiment [2] it was 1400 nM; in experiment [3] it was 5220 nM. In addition, in experiment [3], the LC50 was determined as 9410 nM. The viability at 10 µM in experiment [4] (setting [6]) amounted to 37%.
Consider `CC(C)(C)c1ccc(-c2nc(NC(=O)c3ccc([N+](=O)[O-])s3)sc2-c2ccc(F)cc2)cc1` [Compound 6-24, N-(4-(4-(tert-butyl)phenyl)-5-(4-fluorophenyl)thiazol-2-yl)-5-nitrothiophene-2-carboxamide], for which, in experiment [1], the GI50 was 1370 nM and the LC50 (NCI-60 lethal concentration, 50% net cell loss vs time zero) stood at 3570 nM. Also, in experiment [2], the GI50 was determined as 1560 nM and the LC50 (concentration giving 50% net cell loss versus time zero, NCI-60 definition) was determined as 4220 nM. Also, in experiment [3], the GI50 worked out at 990 nM and the LC50 is 1930 nM. In addition, the viability at 10 µM in experiment [4] (setting [7]) was found to be 30%.
In the case of `CC(C)(C)c1ccc(-c2nc(NC(=O)c3ccc([N+](=O)[O-])s3)sc2Oc2ccc(C(F)(F)F)cc2)cc1` [Compound 5-74, N-(4-(4-(tert-butyl)phenyl)-5-(4-(trifluoromethyl)phenoxy)thiazol-2-yl)-5-nitrothiophene-2-carboxamide], in experiment [1], the GI50 came out at 690 nM and the LC50 (NCI-60 lethal concentration, 50% net cell loss vs time zero) worked out at 1290 nM. Besides, in experiment [2], the GI50 was found to be 720 nM and the LC50 (concentration giving 50% net cell loss versus time zero, NCI-60 definition) worked out at 1300 nM. Moreover, in experiment [3], the GI50 was determined as 1160 nM and the LC50 turned out to be 1680 nM. In addition, in experiment [4] (setting [6]), the viability at 10 µM was 33%.
